From ChEMBL document CHEMBL1201862, “PubChem BioAssay data set” (2004)
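Step 1: Grow cells in 96-well plates. Step 2: Expose to compound for 48 hours at 5 concentrations. Step 3: Interpolate endpoints linearly; if unreached, use highest concentration. At the GI50, growth is halved.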 Active and inactive are the calls of the source. Cut-off read from the data, not from the text of the source: active = GI50 up to about 1.1 µM and inactive = higher.

How the values were obtained:
Assay in all cases: NCI tumour cell line growth inhibition, 48 h
786-0 = system: 786-0
A549 = system: A549
ACHN = system: ACHN
CAKI-1 = system: CAKI-1
COLO 205 = system: COLO 205
DU-145 = system: DU-145
EKVX = system: EKVX
HCC 2998 = system: HCC 2998
HCT-116 = system: HCT-116
HCT-15 = system: HCT-15
HL-60 = system: HL-60
HOP-62 = system: HOP-62
HOP-92 = system: HOP-92
HT-29 = system: HT-29
IGROV-1 = system: IGROV-1
KM12 = system: KM12
LOX IMVI = system: LOX IMVI
M14 = system: M14
MCF7 = system: MCF7
MDA-MB-231 = system: MDA-MB-231
MDA-MB-435 = system: MDA-MB-435
MDA-N = system: MDA-N
MOLT-4 = system: MOLT-4
NCI-H226 = system: NCI-H226
NCI-H23 = system: NCI-H23
NCI-H460 = system: NCI-H460
NCI/ADR-RES = system: NCI/ADR-RES
OVCAR-3 = system: OVCAR-3
OVCAR-4 = system: OVCAR-4
OVCAR-5 = system: OVCAR-5
OVCAR-8 = system: OVCAR-8
PC-3 = system: PC-3
SF-295 = system: SF-295
SF-539 = system: SF-539
SK-MEL-28 = system: SK-MEL-28
SK-MEL-2 = system: SK-MEL-2
SK-MEL-5 = system: SK-MEL-5
SK-OV-3 = system: SK-OV-3
SN12C = system: SN12C
SNB-19 = system: SNB-19
SNB-75 = system: SNB-75
SW-620 = system: SW-620
T47D = system: T47D
TK-10 = system: TK-10
U-251 = system: U-251
UACC-257 = system: UACC-257
UO-31 = system: UO-31
CCRF-CEM = system: CCRF-CEM
Hs-578T = system: Hs-578T
K562 = system: K562
NCI-H522 = system: NCI-H522
RPMI-8226 = system: RPMI-8226
SF-268 = system: SF-268
SR = system: SR
UACC-62 = system: UACC-62

For `N#CCc1nc(O)c2ccccc2n1`, the GI50 (786-0) was > 100 µM (inactive), the GI50 (A549) was > 100 µM (inactive) and the GI50 (ACHN) was > 100 µM (inactive). For the same molecule, the GI50 (CAKI-1) was > 100 µM (inactive), the GI50 (COLO 205) was 98.9 µM (inactive) and the GI50 (DU-145) was > 100 µM (inactive). The GI50 (EKVX) was > 100 µM (inactive), the GI50 (HCC 2998) was > 100 µM (inactive) and the GI50 (HCT-116) was > 100 µM (inactive). The GI50 (HCT-15) was 48 µM, the GI50 (HL-60) was 28.3 µM (inactive) and the GI50 (HOP-62) was > 100 µM (inactive). The GI50 (HOP-92) was > 100 µM (inactive), the GI50 (HT-29) was > 100 µM (inactive) and the GI50 (IGROV-1) was > 100 µM (inactive). The GI50 (KM12) was > 100 µM (inactive), the GI50 (LOX IMVI) was 56.4 µM (inactive) and the GI50 (M14) was > 100 µM (inactive). For the same molecule, the GI50 (MCF7) was 28.1 µM (inactive), the GI50 (MDA-MB-231) was > 100 µM (inactive) and the GI50 (MDA-MB-435) was > 100 µM (inactive). For the same molecule, the GI50 (MDA-N) was > 100 µM (inactive), the GI50 (MOLT-4) was 39.7 µM (inactive) and the GI50 (NCI-H226) was > 100 µM (inactive). For the same molecule, the GI50 (NCI-H23) was > 100 µM (inactive), the GI50 (NCI-H460) was > 100 µM (inactive) and the GI50 (NCI/ADR-RES) was > 100 µM (inactive). For the same molecule, the GI50 (OVCAR-3) was 69.7 µM (inactive), the GI50 (OVCAR-4) was > 100 µM (inactive) and the GI50 (OVCAR-5) was > 100 µM (inactive). The GI50 (OVCAR-8) was > 100 µM (inactive), the GI50 (PC-3) was > 100 µM (inactive) and the GI50 (SF-295) was > 100 µM (inactive). The GI50 (SF-539) was > 100 µM (inactive), the GI50 (SK-MEL-28) was > 100 µM (inactive) and the GI50 (SK-MEL-2) was > 100 µM (inactive). For the same molecule, the GI50 (SK-MEL-5) was > 100 µM (inactive), the GI50 (SK-OV-3) was > 100 µM (inactive) and the GI50 (SN12C) was > 100 µM (inactive). For the same molecule, the GI50 (SNB-19) was > 100 µM (inactive), the GI50 (SNB-75) was > 100 µM (inactive) and the GI50 (SW-620) was > 100 µM (inactive). For the same molecule, the GI50 (T47D) was 50.6 µM (inactive), the GI50 (TK-10) was > 100 µM (inactive) and the GI50 (U-251) was > 100 µM (inactive). For the same molecule, the GI50 (UACC-257) was > 100 µM (inactive) and the GI50 (UO-31) was > 100 µM (inactive).

With `COc1ccccc1C1c2cc3c(cc2OC(N2CCOCC2)C1C)OCO3` (stereo not given) the GI50 (786-0) was 18.9 µM (inactive), the GI50 (A549) was 17.3 µM (inactive) and the GI50 (ACHN) was 26.2 µM (inactive). For the same molecule, the GI50 (CCRF-CEM) was 13.2 µM (inactive), the GI50 (COLO 205) was > 10 µM (inactive) and the GI50 (DU-145) was 18.5 µM (inactive). The GI50 (EKVX) was 20.6 µM (inactive), the GI50 (HCT-116) was 12.4 µM (inactive) and the GI50 (HCT-15) was 16.7 µM. The GI50 (HOP-62) was 17.8 µM (inactive), the GI50 (HT-29) was 16.9 µM (inactive) and the GI50 (Hs-578T) was 13.2 µM (inactive). For the same molecule, the GI50 (IGROV-1) was 27.2 µM (inactive), the GI50 (K562) was 7.85 µM (inactive) and the GI50 (KM12) was 16.4 µM (inactive). For the same molecule, the GI50 (LOX IMVI) was 16.7 µM (inactive), the GI50 (M14) was 17.5 µM (inactive) and the GI50 (MCF7) was 23.6 µM (inactive). The GI50 (MDA-MB-435) was 8.04 µM (inactive), the GI50 (MDA-N) was 10.5 µM (inactive) and the GI50 (MOLT-4) was 17.1 µM (inactive). The GI50 (NCI-H23) was 19.8 µM (inactive), the GI50 (NCI-H460) was 16.6 µM (inactive) and the GI50 (NCI-H522) was 12.7 µM (inactive). For the same molecule, the GI50 (NCI/ADR-RES) was 22.9 µM (inactive), the GI50 (OVCAR-3) was 13 µM (inactive) and the GI50 (OVCAR-5) was 16.4 µM (inactive). For the same molecule, the GI50 (OVCAR-8) was 28.3 µM (inactive), the GI50 (PC-3) was 21.5 µM (inactive) and the GI50 (RPMI-8226) was 16.2 µM (inactive). The GI50 (SF-268) was 16.1 µM (inactive), the GI50 (SF-295) was 13.5 µM (inactive) and the GI50 (SF-539) was 14.2 µM (inactive). For the same molecule, the GI50 (SK-MEL-28) was 15.6 µM (inactive), the GI50 (SK-MEL-2) was 17.7 µM (inactive) and the GI50 (SK-MEL-5) was 15.4 µM (inactive). The GI50 (SN12C) was 17.7 µM (inactive), the GI50 (SNB-19) was 14 µM (inactive) and the GI50 (SR) was 15.8 µM (inactive). The GI50 (SW-620) was 17.7 µM (inactive), the GI50 (T47D) was 13.2 µM (inactive) and the GI50 (TK-10) was 22 µM (inactive). For the same molecule, the GI50 (UACC-257) was 15.8 µM (inactive), the GI50 (UACC-62) was 14.7 µM (inactive) and the GI50 (UO-31) was 15.9 µM (inactive).

In the case of `NNc1c(C(N)=O)c2c(N)ncnc2n1C1OC(CO)C(O)C1O` (stereo not given), the GI50 (ACHN) is reported as 0.0107 µM (active), the GI50 (COLO 205) is reported as 0.0129 µM (active) and the GI50 (DU-145) is reported as < 0.01 µM (active). The GI50 (EKVX) was 0.078 µM (active), the GI50 (HCT-116) was 0.0119 µM (active) and the GI50 (HCT-15) was 0.0175 µM. The GI50 (HOP-62) was 0.0196 µM (active), the GI50 (HT-29) was 0.0198 µM (active) and the GI50 (K562) was 0.0451 µM (active). For the same molecule, the GI50 (LOX IMVI) was 0.0112 µM (active), the GI50 (MCF7) was 0.0171 µM (active) and the GI50 (MDA-MB-231) was 0.0255 µM (active). For the same molecule, the GI50 (MDA-N) was 0.0261 µM (active), the GI50 (NCI-H226) was 0.0536 µM (active) and the GI50 (SF-295) was 0.233 µM (active). The GI50 (SR) was < 0.01 µM (active), the GI50 (SW-620) was < 0.01 µM (active) and the GI50 (T47D) was < 0.01 µM (active).
